Test results published in patent US7598420B1, “Rasagiline formulations and processes for their preparation” (Teva Pharmaceutical Industries, Ltd., priority 2005, dated 2009).

Experiments:
[1] = test system: monoamine oxidase enzyme Type-B (MAO-B); conditions: cited from earlier work
[2] = 80° C.-100° C., presence of a chloride ion source and low pH

Row | SMILES | MAO-B inhibitory activity [1] | degree of selectivity for MAO-B inhibition ([1]; compared with the corresponding racemic form) | chlorination of the triple bond to form chlorinated allyl aminoindans (2-chloro and cis-3-chloro) [2]
1 | C#CCN[C@@H]1CCc2ccccc21 [(R)-PAI, N-propargyl-1(R)-aminoindan] | active MAO-B inhibitor | surprisingly higher than that of the corresponding racemic form | –
2 | C#CCN[C@H]1CCc2ccccc21 [(S)-PAI] | extremely low MAO-B inhibitory activity | – | –
3 | C#CCN[C@@H]1CCc2ccccc21.CS(=O)(=O)O [rasagiline mesylate, N-propargyl-1(R)-aminoindan mesylate] | – | – | susceptible to chlorination
